Reference: the OPERA property sets (Mansouri et al. 2018)

For `O=C1NC(=O)N(c2ccccc2)C1=O`, which logP is on record?
The logP was 0.6.

Which logP does the source give for `O=C1NC(=O)C(Cc2ccccc2)S1` (configuration not stated) here?
Its logP is 1.98.

For `O=C1NC(=O)C(Cc2ccccc2)N1` (configuration not stated), which logP is on record?
Its logP is 0.6.

Which logP does the source give for `O=C1NC(=O)C(Cc2ccccc2)O1` (configuration not stated) here?
The logP was 1.2.

With `O=C1CC(=O)N(Cc2ccccc2)C1` as the compound, how does the logP read?
The logP was 0.76.

With `NC(=O)NS(=O)(=O)Cc1ccccc1` as the compound, how does the logP read?
Its logP is 0.24.

With `O=C1NC(=O)C(c2ccccc2)C1=O` (configuration not stated) as the compound, how does the logP read?
The logP was 2.26.

For `O=c1[nH]c(=O)n(-c2ccccc2)o1`, which logP is on record?
Its logP is 1.74.

For `O=C1CNC(=O)N1c1ccccc1`, which logP is on record?
Its logP is 0.04.

Which logP does the source give for `O=C1CC(=O)C(c2ccccc2)O1` (configuration not stated) here?
The logP was 1.47.

With `NS(=O)(=O)NC(=O)Cc1ccccc1` as the compound, how does the logP read?
The logP was 0.31.

For `O=C1NC(=O)C(c2ccccc2)O1` (configuration not stated), which logP is on record?
Its logP is 1.09.

With `O=C1CC(=O)N(c2ccccc2)O1` as the compound, how does the logP read?
The logP was 0.54.

Which logP does the source give for `O=C1CC(=O)C(c2ccccc2)N1` (configuration not stated) here?
The logP was 0.48.

Which logP does the source give for `O=C1CN(Cc2ccccc2)C(=O)N1` here?
Its logP is 0.76.

For `O=C1NC(=O)N(Cc2ccccc2)C1=O`, which logP is on record?
The logP was 1.19.

For `O=C1CN(c2ccccc2)C(=O)N1`, which logP is on record?
The logP was 0.83.
